Data taken from ChEMBL document CHEMBL5728314, “Chiral N-acyl-5,6,7(8-substituted)-tetrahydro-[1,2,4]triazolo[4,3-a]pyrazines as selective NK-3 receptor antagonists, pharmaceutical composition, methods for use in NK-3 receptor mediated disorders and chiral synthesis thereof” (2021).

Target: T1, Neuromedin-K receptor (Homo sapiens, UniProt P29371)
T1 sequence (P29371 whole entry): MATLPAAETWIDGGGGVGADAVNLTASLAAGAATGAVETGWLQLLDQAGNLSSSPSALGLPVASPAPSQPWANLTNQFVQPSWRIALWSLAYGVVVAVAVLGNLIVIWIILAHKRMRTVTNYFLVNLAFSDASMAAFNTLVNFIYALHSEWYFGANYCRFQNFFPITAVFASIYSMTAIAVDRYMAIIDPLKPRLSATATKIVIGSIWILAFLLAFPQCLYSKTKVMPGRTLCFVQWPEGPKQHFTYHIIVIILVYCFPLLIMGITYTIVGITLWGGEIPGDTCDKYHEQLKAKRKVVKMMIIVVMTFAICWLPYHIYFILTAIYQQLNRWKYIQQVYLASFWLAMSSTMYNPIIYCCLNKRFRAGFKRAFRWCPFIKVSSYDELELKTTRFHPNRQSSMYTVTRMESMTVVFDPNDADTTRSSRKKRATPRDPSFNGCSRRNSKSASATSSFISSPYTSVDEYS
Assay: Binding Competition Assay: NK3: The ability of compounds of the invention to inhibit the binding of the NK-3 receptor selective antagonist 3H-SB222200 was assessed by an in vitro radioligand binding assay. Membranes were prepared from Chinese hamster ovary recombinant cells stably expressing the human NK3 receptor. The membranes were incubated with 5 nM 3H-SB222200 (ARC) in a HEPES 25 mM/NaCl 0.1M/CaCl2 1 mM/MgCl2 5 Mm/BSA 0.5%/Saponin 10 μg/ml buffer at pH 7.4 and various concentrations of compounds of the invention. The amount of 3H-SB222200 bound to the receptor was determined after filtration by the quantification of membrane associated radioactivity using the TopCount-NXT reader (Packard).

Cc1coc(-c2nnc3n2CCN[C@@H]3C)n1
Ki: 51 nM
